Tests used:
Mus musculus [1] = assay: Antihyperlipidemic activity in high-fat fed Mus musculus Swiss albino (mouse) assessed as reduction of serum triglyceride level at 30 mg/kg, po qd for 15 days; type: functional; parameters: scale not given: the % may be the effect or the level left
Mus musculus [2] = assay: Toxicity in high-fat fed Mus musculus Swiss albino (mouse) assessed as change in body weight at 30 mg/kg, po qd for 15 days (reference value: 39.9 +/- 1.3 g); type: organism-based; parameters: dose 30 mg/kg, route oral; details: in vivo, 360 h
Mus musculus [3] = assay: Antihyperlipidemic activity in high-fat fed Mus musculus Swiss albino (mouse) assessed as reduction of serum cholesterol level at 30 mg/kg, po qd for 15 days; type: functional; parameters: scale not given: the % may be the effect or the level left
Mus musculus [4] = assay: Antihyperglycemic activity in high-fat fed Mus musculus Swiss albino (mouse) assessed as reduction of fasting serum glucose level at 30 mg/kg, po qd for 15 days; type: functional; parameters: scale not given: the % may be the effect or the level left
Mus musculus [5] = assay: Antihyperglycemic activity in high-fat fed Mus musculus Swiss albino (mouse) assessed as reduction of insulin resistance index at 30 mg/kg, po qd for 15 days; type: functional; parameters: scale not given: the % may be the effect or the level left
Mus musculus [6] = assay: Antihyperglycemic activity in high-fat fed Mus musculus Swiss albino (mouse) assessed as reduction of fasting serum insulin level at 30 mg/kg, po qd for 15 days; type: functional; parameters: scale not given: the % may be the effect or the level left

CN(CCOc1ccc(CC2SC(=O)NC2=O)cc1)c1ccccn1 (stereo not given) [ROSIGLITAZONE]
Activity (Mus musculus [1]): 43%
Activity (Mus musculus [2]): 5.28 g
Activity (Mus musculus [3]): 35%
Activity (Mus musculus [4]): 44%
Activity (Mus musculus [5]): 71%
Activity (Mus musculus [6]): 48%

COc1ccc(/C=C2\SC(=O)N(Cc3ccc(C)cc3)C2=O)cc1
Activity (Mus musculus [1]): 44%
Activity (Mus musculus [2]): 5.12 g
Activity (Mus musculus [3]): 27%
Activity (Mus musculus [4]): 46%
Activity (Mus musculus [5]): 81%
Activity (Mus musculus [6]): 65%

COc1ccc(/C=C2\SC(=O)N(Cc3ccc(C)cc3)C2=O)c(OC)c1
Activity (Mus musculus [1]): 38%
Activity (Mus musculus [2]): 6.06 g
Activity (Mus musculus [3]): 36%
Activity (Mus musculus [4]): 36%
Activity (Mus musculus [5]): 57%
Activity (Mus musculus [6]): 33%

Cc1ccc(CN2C(=O)S/C(=C\c3ccc(Cl)cc3)C2=O)cc1
Activity (Mus musculus [1]): 42%
Activity (Mus musculus [2]): 6.71 g
Activity (Mus musculus [3]): 40%
Activity (Mus musculus [4]): 29%
Activity (Mus musculus [5]): 49%
Activity (Mus musculus [6]): 27%

Cc1ccc(CN2C(=O)S/C(=C\c3ccc(N(C)C)cc3)C2=O)cc1
Activity (Mus musculus [1]): 23%
Activity (Mus musculus [2]): 5.88 g
Activity (Mus musculus [3]): 22%
Activity (Mus musculus [4]): 38%
Activity (Mus musculus [5]): 73%
Activity (Mus musculus [6]): 56%

— ChEMBL document CHEMBL3046290, “Metabolic effects of benzylidene thiazolidinedione derivatives in high-fat fed mice” (Med Chem Res, 2012)
